# Reference: patent publication US9040521B2, “Methods and compositions for modulating tau levels” (THE J. DAVID GLADSTONE INSTITUTES, priority 2009, dated 2015)
# What was measured:
# [1] = tested on: tau acetylation in primary neurons; assay: western blot of ac-tau, t-tau and p-tau in primary cortical neurons; format: cell-based, rat
# Method: (§1) Primary cultures were established from cortices of Sprague-Dawley rat pups (Charles River Laboratories) or SIRT1^F/F mice on postnatal day 0 or 1. Purified cells were plated at 160,000 cells/ml in Neurobasal medium supplemented with B27 (Invitrogen) on poly-ornithine coated plates. All treatments were performed at 7-13 DIV in Neurobasal medium supplemented with N2 (Invitrogen) unless noted otherwise.
# (§2) Cells or human or mouse brain tissues were lysed in RIPA buffer containing protease inhibitor cocktail (Sigma), 1 mM phenylmethyl sulfonyl fluoride (PMSF) (Sigma), phosphatase inhibitor cocktail (Roche), and HDAC inhibitors, including 5 mM nicotinamide (Sigma) and 1 μM trichostatin A (Sigma). After sonication, lysates from human or mouse brain tissues were centrifuged at 170,000 g at 4° C. for 15 min and at 18,000 g at 4° C. for 10 min. Supernatants were collected and analyzed by western blot. Bands in immunoblots were visualized by enhanced chemiluminescence (Pierce) and quantified by densitometry and Quantity One 4.0 software (Bio-Rad, Hercules, Calif.).
# [2] = tested on: tau ubiquitination in HEK293T cells; assay: in vivo ubiquitination assay in HEK293T cells; format: cell-based, human
# Method: Procedures were modified from a published study. Oh et al. (2009) Nat Cell Biol 11:295. HEK293T cells were transfected with expression vectors encoding FLAG-tagged human tau and HA-ubiquitin with or without Myc-SIRT1 (wildtype or H363Y mutant). After 2 h of incubation, cells were treated with EX527, resveratrol, or dimethylsulfoxide (DMSO) in Dulbecco's modified Eagle's medium and incubated for 20 h. MG-132 (20 μM) was added and incubated for 4 h. Cells were lysed in ubiquitination buffer (20 mM Tris-HCl, pH 7.5, 0.1 mM EDTA, 0.2% Triton X-100, 150 mM NaCl, and protease inhibitor cocktail). Supernatant proteins were immunoprecipitated with FLAG M2 agarose beads (Sigma) for 3 h at 4° C. Reactions were washed at least three times with ubiquitination buffer and analyzed by SDS-PAGE and western blot with anti-HA antibody (Cell Signaling Technology).
# [3] = tested on: turnover of endogenous tau in primary neurons; assay: tau turnover in primary neurons treated with cycloheximide; format: cell-based, rat
# Method: as §1, §2
# It was then directly examined whether enhancing acetylation of tau slows the turnover of endogenous tau. Primary neurons were treated with EX527 to enhance tau acetylation and with cycloheximide (CHX) to inhibit translation of new proteins. […] Consistent with this notion, ac-tau appears to be degraded slower than that of t-tau.
# [4] = tested on: AT8-positive p-tau in primary neurons expressing hTauP301L; assay: p-tau in primary neurons expressing hTauP301L; format: cell-based; conditions: 20 μM, DIV=12
# Method: as §1
# Lentivirus was generated, purified, and used for infection as described. Chen et al. (2005) supra. Recombinant lentivirus was produced by co-transfection of the shuttle vector (FUGW), two helper plasmids, delta8.9 packaging vector, and VSV-G envelope vector into 293T cells and purified by ultracentrifugation. Viral titers were measured by p24 enzyme-linked immunosorbent assays at the Gladstone-UCSF Laboratory of Clinical Virology.
# as §2, with “After sonication, lysates from human or mouse brain tissues were centrifuged at 170,000 g at 4° C. for 15 min and at 18,000 g at 4° C. for 10 min.” left out
# tau transcripts = assay: real-time RT-PCR of tau transcripts in primary neurons; format: cell-based, rat; conditions: treatment for 8 h
# Method: as §1
# [5] = tested on: six other acetyltransferases (serotonin N-acetyltransferase, pCAF, GCN5, Rtt109, Sas, MOZ); conditions: C646 at 10 μM, cell-free; cited from earlier work
# [6] = EX527 50 μM, rat primary neurons DIV=10
compound,measurement,setting,value
NC(=O)C1CCCc2c1[nH]c1ccc(Cl)cc21 (stereo not shown) [EX527],AT8-positive p-tau,[1]; [6],markedly increased
same,ac-tau,[1]; [6],markedly increased
same,levels of ac-tau relative to t-tau,[1]; [6],significantly increased
same,levels of p-tau relative to t-tau,[1]; [6],significantly increased
same,t-tau,[1]; [6],markedly increased
same,ac-tau levels,"[2]; 1-50 μM, HEK293T cells",elevated
same,polyubiquitination of tau,"[2]; 1-50 μM, HEK293T cells, with MG132",prevented polyubiquitination of tau in a dose-dependent manner
same,turnover of ac-tau,"[3]; 10 μM, CHX, primary neurons",blocked the turnover
same,accumulation of ac-tau,"[3]; 50 μM, CHX, primary neurons",more pronounced accumulation
same,half-life of t-tau (tau turnover),"[3]; 10-50 μM, CHX 0-8 h, rat primary neurons DIV=8",increased the half-life of t-tau in a dose-dependent manner
same,degradation of AT8-positive p-tau,"[3]; 10-50 μM, CHX, primary neurons",blocked the degradation
Oc1ccc(C=Cc2cc(O)cc(O)c2)cc1 [resveratrol],tau ubiquitination,[2]; HEK293T cells transfected with SIRT1 H363Y mutant,not those with H363Y mutant
same,tau ubiquitination,[2]; HEK293T cells transfected with wildtype SIRT1,significantly increased
CC1=NN(c2ccc(C(=O)O)cc2)C(=O)/C1=C\c1ccc(-c2cc(C)c(C)cc2[N+](=O)[O-])o1 [Compound C646],t-tau levels,"[1]; 20 μM, 2 h, primary cortical neurons DIV=9",without affecting
same,levels of t-tau,"[1]; 20 μM, 8 h, primary rat cortical neurons",remained unchanged
same,levels of t-tau,"[1]; 20 μM, 20 h, primary cortical neurons",lowered
same,tau phosphorylated at serine 202 (AT8-positive p-tau),"[1]; 20 μM, within 2 h, primary cortical neurons",abolished
same,ac-tau,"[1]; 20 μM, within 2 h, primary cortical neurons DIV=9",eliminated
same,levels of ac-tau,"[1]; 20 μM, within 8 h, primary rat cortical neurons",drastically reduced
same,AT8-positive p-tau,[4],diminished
same,tau transcripts,tau transcripts,did not suppress
same,inhibition of the six other acetyltransferases,[5],< 10%
